Source: patent publication US12629419B2, “Prevention or mitigation of T-cell engaging agent-related adverse effects” (Hoffmann-La Roche Inc., priority 2020, dated 2026)
“Also recorded” adds a separate entry of the source.

Tests used:
[1] = system: MKN45 NucLight Red (NLR) target cells; test: killing assay with PBMCs, MKN45 NLR target cells and CEA-TCB (Incucyte); format: cell-based
CD19+ B cells = test: CD20-TCB-induced B cell depletion in non-tumor bearing humanized NSG mice; format: in vivo; conditions: 48 and 72 hours; 0.15 mg/kg CD20-TCB; p.o. 2, 5, 10 mg/kg sirolimus, 10 mg/kg everolimus, 10 mg/kg temsirolimus, ruxolitinib
Experimental: FIG. 95. In vivo experiment timelines and dosing schedule.
FIG. 96. […] The proportion of CD19+ B cells among human CD45+(huCD45) cells was measured by flow cytometry in the blood collected 48 hrs and 72 hrs post-treatment with CD20-TCB. Mean of n=4 mice or n=3 mice (everolimus group)+/−SEM. The statistical comparison to the vehicle group is summarized table (C) where the p values were calculated by Kruskal-Wallis test.
Different doses of mTOR, JAK and Src kinase inhibitors were tested to determine the optimal dose that reduces CD20-TCB-induced cytokine release while minimally interfering with B cell depletion. […] The doses of 30 and 60 mg/kg were tested for ruxolitinib and the doses of 10 and 50 mg/kg were tested for dasatinib. To reproduce the clinical route of administration, the different kinase inhibitors were given orally (p.o.) once or twice per day as depicted in FIG. 95. Mice were bled 4 hours and 24 hours after the treatment with CD20-TCB (FIG. 95) to collect serum for cytokine level measurements by Luminex. Additionally, blood was collected 48 hours and 72 hours (termination) post treatment with CD20-TCB to measure the percentage of CD19+ B cells among human CD45+ cells by flow cytometry (FIG. 95).

SUDLH-8 tumor cells = test: killing assay with PBMCs, CTV labelled SUDLH-8 tumor cells and CD19-TCB; format: cell-based; conditions: 24 hrs; 100 nM kinase inhibitors or dexamethasone, 5 μg/mL antibodies
Experimental: FIG. 64. In vitro killing assay set-up. PBMCs were co-cultured with CellTrace™ Violet (CTV) labelled SUDLH-8 tumor cells (E:T=10:1) in the presence of escalating concentrations of CD19-TCB in media supplemented with the different kinase inhibitors (100 nM) for 24 hrs.
FIG. 69. In vitro killing assay set-up. PBMCs were co-cultured with CTV labelled SUDLH-8 cells (E:T=10:1) in the presence of escalating concentrations of CD19-TCB in media supplemented with the different JAK inhibitors (100 nM) for 24 hrs.
FIG. 73. In vitro killing assay set-up.
PBMCs were co-cultured together with CellTrace™ Violet (CTV) labelled SUDLH-8 tumor cells and escalating concentrations of CD19-TCB in the presence of the different kinase inhibitors, including also the Src inhibitor dasatinib (FIG. 64). At assay endpoint (24 hrs), the killing of CTV labelled SUDLH-8 cells was measured by flow cytometry by exclusion of the dead SUDLH-8 cells with a Live/Dead stain. […] Lastly, the levels of cytokines were measured in the supernatants of the assay to evaluate the effect of mTOR, JAK and Src inhibitors on CD19-TCB-induced cytokine release.
(§1) At assay endpoint (24 hrs), the killing of CTV labelled SUDLH-8 cells was measured by flow cytometry by exclusion of the dead SUDLH-8 cells with a Live/Dead stain. […] Lastly, the levels of cytokines were measured in the supernatants of the assay to assess the effect of the JAK inhibitors on CD19-TCB-induced cytokine release.
as §1, with “stain to evaluate the effect of the different mitigation approaches on CD19-TCB-dependent killing.” for “stain.”, “address” for “assess”

[2] = system: CEA-TCB-induced cytokine release; test: CEA-TCB-induced cytokine release (Luminex, supernatants); conditions: 10 nM CEA-TCB; for levels of IFN-γ, TNF-α, IL-2, IL-6, MCP-1, IL-8, IL-10, IL-4 and GM-CSF: assay endpoint 72 h (ruxolitinib 69 h), in comparison to samples without inhibitor; for CEA-TCB induced cytokine release: even at the lowest doses tested; for CEA-TCB-induced cytokine release: fixed compound concentrations
Experimental: The levels of cytokines were measured by Luminex in the supernatants of the assay to determine the impact of the different compounds on CEA-TCB-induced cytokine release.

[3] = system: CD20-TCB-induced cytokine release; test: CD20-TCB killing assay, inhibitors added after 18 hours: cytokine release from pre-activated effector cells; format: cell-based; conditions: 100 nM added at 18 h
Experimental: FIG. 34. In vitro killing assay set-up. Cell Trace™ Violet (CTV) labelled WSU DLCL2 tumor cells were co-cultured together with PBMCs [E:T=200′000:20′000] and stimulated with CD20-TCB for 18 h.
In this assay, CTV labelled WSU DLCL2 tumors cells were co-cultured with PBMCs in the presence of escalating doses of CD20-TCB for 18 hours.

[4] = system: CD20-TCB-induced cytokine release; test: CD20-TCB-induced cytokine release (Luminex); format: cell-based; conditions: 24 h; for CD20-TCB-induced cytokine release: escalating CD20-TCB / 1 nM CD20-TCB, fixed compound concentrations
Experimental: A similar experiment was conducted with another TCB.
(§2) A similar experiment was conducted with CD20-TCB.
(§3) A similar experiment was conducted with CD20-TCB. WSU DLCL2 cells were co-cultured together with PBMCs in the presence of 1 nM CD20-TCB, and escalating everolimus doses ranging from 0 nM to 1000 nM (FIG. 13).
(§4) A similar experiment was conducted with CD20-TCB. WSU DLCL2 cells were co-cultured together with PBMCs in the presence of 1 nM CD20-TCB, and escalating ruxolitinib doses ranging from 0 nM to 1000 nM (FIG. 13).
(§5) A similar experiment was conducted with another TCB. […] The killing of B cells was measured as a readout for the impact of the various compounds on TCB efficacy at 24 h (FIGS. 27 and 28). […] Lastly, the levels of cytokines (TNF-α, IFN-γ, IL-2, IL-6, IL-4, IL-10, GM-CSF and IL-1β) were analyzed by Luminex at assay endpoint to assess the impact of the different treatments on TCB-induced cytokine release (FIGS. 32 and 33).
(§6) At 24 hours, tumor cell killing was measured by flow cytometry by exclusion of dead CTV cells. The supernatants were collected and cytokines were measured by Luminex.

CD4+ and CD8+ T cells [5] = test: T cell activation (CD25, CD69 by flow cytometry) in CEA-TCB killing assay; format: cell-based; conditions: 10 nM CEA-TCB; for T cell activation triggered by the TCB: summary statement, also for target cell killing; for CD25 and CD69 expression on CD4+ and CD8+ T cells (T cell activation): 66 h, fixed compound concentrations; for expression of CD69 on CD8+ T cells / expression of CD25 on CD4+ T cells / expression of CD69 on CD4+ T cells / expression of CD25 on CD8+ T cells: 72 h; for expression of CD25 on CD4+ T cells / expression of CD69 on CD4+ T cells / expression of CD25 on CD8+ T cells: concentrations above 25 nM; for expression of CD25 on CD4+ T cells / expression of CD69 on CD4+ T cells: reduced from ~45%; for expression of CD25 on CD8+ T cells: reduced from ~75% (everolimus: ~70%)
[6] = system: A375 NucLight Red (NLR) target-cells; test: killing assay with PBMCs, A375 NLR target cells and MAGEA4-TCB (Incucyte); format: cell-based; conditions: 8 nM MAGEA4-TCB; escalating inhibitor concentrations
CD4+ and CD8+ T cells [7] = test: T cell activation (CD25, CD69) in CD20-TCB killing assay; format: cell-based; conditions: 1 nM CD20-TCB; 24 h; inhibitor 0 nM to 1000 nM
Experimental: A similar experiment was conducted with another TCB. WSU DLCL2 cells were co-cultured together with PBMCs in the presence of 1 nM CD20-TCB (SEQ ID NOs 4-11, 24-35), and escalating sirolimus doses ranging from 0 nM to 1000 nM (FIG. 13).
as §2, §3, §4, §5, §6

[8] = inhibitor doses 12.5 nM to 1 μM, 50 000 PBMCs: 5 000 target cells, Incucyte

Compound | MKN45 NLR target cell killing by 10 nM CEA-TCB [1, 8] | B cell depletion induced by CD20-TCB (percentage of CD19+ B cells among human CD45+ cells in peripheral blood) (CD19+ B cells) | CD19-TCB-dependent killing of CTV labelled SUDLH-8 cells (SUDLH-8 tumor cells) | levels of IFN-γ, TNF-α, IL-2, IL-6, MCP-1, IL-8, IL-10, IL-4 and GM-CSF [2] | CEA-TCB induced cytokine release [2] | CEA-TCB-induced cytokine release ([2]; 66 h) | further release of IFN-γ, IL-2, IL-6 ([3]; 1 nM CD20-TCB, three donors) | release of TNF-α and IL-1β ([3]; between 18 hours and 44 hours) | CD20-TCB-induced cytokine release [4] | T cell activation triggered by the TCB (CD4+ and CD8+ T cells [5]) | CD25 and CD69 expression on CD4+ and CD8+ T cells (T cell activation) (CD4+ and CD8+ T cells [5]) | expression of CD69 on CD8+ T cells (CD4+ and CD8+ T cells [5]) | expression of CD25 on CD4+ T cells (CD4+ and CD8+ T cells [5]) [%] | expression of CD69 on CD4+ T cells (CD4+ and CD8+ T cells [5]) [%] | expression of CD25 on CD8+ T cells (CD4+ and CD8+ T cells [5]) [%] | MAGEA4-TCB induced tumor cell killing [6] | T cell activation (CD25 and CD69 on CD4+ and CD8+ T cells) (CD4+ and CD8+ T cells [7]) | also measured
CO[C@H]1C[C@@H]2CC[C@@H](C)[C@@](O)(O2)C(=O)C(=O)N2CCCC[C@H]2C(=O)O[C@H]([C@H](C)C[C@@H]2CC[C@@H](O)[C@H](OC)C2)CC(=O)[C@H](C)/C=C(\C)[C@@H](O)[C@@H](OC)C(=O)[C@H](C)C[C@H](C)/C=C/C=C/C=C/1C [sirolimus, Sirolimus] | only partially reduced | did not interfere; also recorded: minimally interfered | did not prevent | very low | strongly downregulated; also recorded: strongly reduces | inhibited; also recorded: comparable to dexamethasone and dasatinib | prevented further release | to a lower extent | comparable effect to dexamethasone and dasatinib | does not fully inhibit | milder impact | did not affect | ~15 | ~25 | 40 | did not prevent | did not fully inhibit | IL-2, IFN-γ, IL-6 and GM-CSF release ([3]; between 18 hours and 44 hours): stopped; cytokine release induced by CD20-TCB (IFN-γ, IL-2, TNF-α, GM-CSF and IL-6) ([4]; 1 nM CD20-TCB, concentrations above 12.5 nM): strongly reduced
N#CC[C@H](C1CCCC1)n1cc(-c2ncnc3[nH]ccc23)cn1 [ruxolitinib, Ruxolitinib] |  | slightly interfered; also recorded: minimally interfered | did not prevent | very low | strongly downregulated; also recorded: strongly reduces | inhibited; also recorded: comparable to dexamethasone and dasatinib |  |  | comparable effect to dexamethasone and dasatinib | does not fully inhibit | milder impact |  |  |  |  | did not prevent | did not fully inhibit | killing of MKN45 NLR tumor cells induced by 1 nM CEA-TCB ([1]; concentration of 1 μM): partially prevented; killing of MKN45 NLR tumor cell induced by 1 nM CEA-TCB ([1]; concentrations between 0 nM and 100 nM): did not prevent; MKN45 NLR target cell killing by 10 nM CEA-TCB ([1]; inhibitor doses 6.25 nM to 100 nM): only partially reduced; degree of inhibition of IFN-γ, TNF-α, GM-CSF, IL-6 and IL-8 levels ([2]; escalating concentrations, ruxolitinib vs. baricitinib): similar; IL-2 levels ([2]; 66 h, compared with the mTOR inhibitors): reduced IL-2 levels less strongly; IL-2 release ([3]; 1 nM CD20-TCB, three donors): did not prevent; further release of IFN-γ and IL-6 ([3]; 1 nM CD20-TCB, three donors): prevented further release; further production of IFN-γ, IL-6 ([3]; between 18 hours and 44 hours): prevented further production; further production of IL-2 ([3]; between 18 hours and 44 hours): did not prevent further production; release of TNF-α, IL-2 and GM-CSF ([4]; 1 nM CD20-TCB): did not have a strong effect; IL-6 and IFN-γ release induced by CD20-TCB ([4]; 1 nM CD20-TCB, concentrations above 25 nM): strongly reduced; expression of CD25 and CD69 on both CD4+ and CD8+ T cells (CD4+ and CD8+ T cells [5]; 69 h, escalating doses): dose-dependently influenced
CO[C@H]1C[C@@H]2CC[C@@H](C)[C@@](O)(O2)C(=O)C(=O)N2CCCC[C@H]2C(=O)O[C@H]([C@H](C)C[C@@H]2CC[C@@H](OC(=O)C(C)(CO)CO)[C@H](OC)C2)CC(=O)[C@H](C)/C=C(\C)[C@@H](O)[C@@H](OC)C(=O)[C@H](C)C[C@H](C)/C=C/C=C/C=C/1C [temsirolimus, Temsirolimus] | only partially reduced | did not interfere; also recorded: minimally interfered | did not prevent |  | strongly downregulated; also recorded: strongly reduces | inhibited; also recorded: comparable to dexamethasone and dasatinib | prevented further release | to a lower extent | comparable effect to dexamethasone and dasatinib | does not fully inhibit | milder impact | did not affect | ~15 | ~25 | 40 | did not prevent | did not fully inhibit | 
